Key:
[1] = test system: mammalian and insect voltage-gated sodium and potassium channels; set-up: method as in PMID 18061227; conditions: 100 μM; strongest effect on hKv1.3; cited from earlier work
Kv4.3/KChIP2 = molecular target: T1, Kv4.3/KChIP2 (Homo sapiens, UniProt Q9UK17); test: CiPA cell-based QPatch ion channel inhibition; conditions: maximum concentration of 30 uM
T1 construct: Eurofins Discovery Services (Eurofins Panlabs Inc) ran the assay
T1 sequence (Q9UK17 1-655): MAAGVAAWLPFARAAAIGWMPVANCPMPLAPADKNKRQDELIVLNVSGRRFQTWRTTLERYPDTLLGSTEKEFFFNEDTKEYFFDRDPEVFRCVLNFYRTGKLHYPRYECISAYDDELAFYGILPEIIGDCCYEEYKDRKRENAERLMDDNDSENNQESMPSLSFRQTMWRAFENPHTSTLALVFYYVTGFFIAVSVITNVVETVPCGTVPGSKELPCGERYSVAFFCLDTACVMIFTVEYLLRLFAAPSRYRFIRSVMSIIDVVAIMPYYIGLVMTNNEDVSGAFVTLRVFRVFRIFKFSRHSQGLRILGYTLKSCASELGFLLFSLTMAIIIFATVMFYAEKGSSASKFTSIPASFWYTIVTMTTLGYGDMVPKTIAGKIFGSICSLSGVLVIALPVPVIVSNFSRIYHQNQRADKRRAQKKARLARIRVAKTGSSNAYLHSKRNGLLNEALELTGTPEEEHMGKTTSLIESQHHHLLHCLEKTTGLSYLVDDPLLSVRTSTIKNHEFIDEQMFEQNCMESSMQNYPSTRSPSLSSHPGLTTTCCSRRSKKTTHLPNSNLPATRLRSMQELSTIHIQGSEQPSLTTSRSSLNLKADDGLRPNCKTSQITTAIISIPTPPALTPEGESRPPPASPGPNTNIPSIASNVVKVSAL
T1 sequence (Q9NS61 1-270 partner): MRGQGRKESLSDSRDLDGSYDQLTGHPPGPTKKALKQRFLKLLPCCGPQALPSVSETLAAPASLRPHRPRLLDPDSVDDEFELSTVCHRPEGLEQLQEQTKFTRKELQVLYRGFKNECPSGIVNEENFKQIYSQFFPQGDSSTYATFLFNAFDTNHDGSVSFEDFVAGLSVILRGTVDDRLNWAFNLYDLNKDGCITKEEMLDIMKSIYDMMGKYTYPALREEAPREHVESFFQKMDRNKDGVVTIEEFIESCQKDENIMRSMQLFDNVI
Protocol: (§1) Assays for human CYP activity (CYP phenotyping), CYP2D6 metabolite discovery (metID), ion channel inhibition (CiPA), and G-protein coupled receptor (GPCR) activity (gpcrMAX) were performed through Eurofins Discovery Services (Eurofins Panlabs Inc, St. Charles MO, USA). In the CYP phenotyping panel, human recombinant CYP1A2, CYP2B6, CYP2C8, CYP2C9, CYP2C19, CYP2D6, and CYP3A4 were included in the assay. A concentration of 1E-07 M of PTX 251D was tested, and the percent compound remaining was quantified at 0, 15, 30, 45, and 60 minutes using HPLC-MS/MS. As a positive control, a reference compound was used for each CYP tested (see S1 File for results). In the CYP2D6 metabolism assay, human recombinant CYP2D6 was incubated with an initial concentration of 10 μM and metabolites were quantified after 90 minutes using LC-MS/MS. Two replicates were used for the CYP phenotyping panel and one replicate was used for CYP2D6 metabolite assay. The CiPA assay was a cell-based QPatch on voltage-gated sodium channel NaV1.5 (peak and late/agonist), voltage-gated potassium channels Kv4.3/KChIP2, hERG, KCNQ1/minK, Kir2.1, and voltage-gated calcium channel Cav1.2. The concentrations of PTX 251D assayed were 3, 10, and 30 μM, and a reference compound for each channel was used (see S1 File for results and individual QPatch parameters). In the gpcrMAX assay a panel of 165 GPCRs was tested through the DiscoverX PathHunter beta-arrestin enzyme fragment complementation technology, and a concentration of 10 μM PTX 251D was tested for both agonist and antagonist activity along with a reference compound for each GPCR (see S1 File for results).

KCNQ1/minK = molecular target: T2, KCNQ1/minK (Homo sapiens, UniProt P51787); test: CiPA cell-based QPatch ion channel inhibition; conditions: maximum concentration of 30 uM
T2 construct: Eurofins Discovery Services (Eurofins Panlabs Inc) ran the assay
Protocol: as §1

Kir2.1 = molecular target: T3, Kir2.1 (Homo sapiens, UniProt P63252); test: CiPA cell-based QPatch ion channel inhibition; conditions: maximum concentration of 30 uM
T3 construct: Eurofins Discovery Services (Eurofins Panlabs Inc) ran the assay
T3 sequence (P63252 1-427): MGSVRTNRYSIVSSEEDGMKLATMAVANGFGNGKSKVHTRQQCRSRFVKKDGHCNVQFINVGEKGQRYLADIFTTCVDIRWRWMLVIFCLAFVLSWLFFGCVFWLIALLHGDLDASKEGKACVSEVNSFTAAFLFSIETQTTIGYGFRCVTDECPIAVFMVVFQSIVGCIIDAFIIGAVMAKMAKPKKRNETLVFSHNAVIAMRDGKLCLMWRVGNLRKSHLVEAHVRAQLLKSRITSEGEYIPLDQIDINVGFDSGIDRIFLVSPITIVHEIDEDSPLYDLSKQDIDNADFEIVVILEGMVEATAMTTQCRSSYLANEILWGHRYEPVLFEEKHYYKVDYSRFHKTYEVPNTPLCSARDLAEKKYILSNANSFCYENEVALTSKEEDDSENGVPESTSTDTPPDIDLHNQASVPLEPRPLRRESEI
Protocol: as §1

hERG = molecular target: T4, hERG (Homo sapiens, UniProt Q12809); test: CiPA cell-based QPatch ion channel inhibition; conditions: maximum concentration of 30 uM
T4 construct: Eurofins Discovery Services (Eurofins Panlabs Inc) ran the assay
Protocol: as §1

[2] = molecular target: T5, voltage-gated sodium channel NaV1.5 (Homo sapiens, UniProt Q14524); test: CiPA cell-based QPatch ion channel inhibition; conditions: maximum concentration of 30 uM
T5 construct: Eurofins Discovery Services (Eurofins Panlabs Inc) ran the assay
Protocol: as §1

human recombinant CYP2C9 = molecular target: T6, human recombinant CYP2C9 (Homo sapiens, UniProt P11712); test: CYP phenotyping panel (PTX 251D clearance); format: in vitro ADME; conditions: 1E-07 M PTX 251D; after 60 minutes
T6 construct: Eurofins Discovery Services (Eurofins Panlabs Inc) ran the assay
Protocol: as §1

[3] = molecular target: T7, human recombinant CYP2C19 (Homo sapiens, UniProt P33261); test: CYP phenotyping panel (PTX 251D clearance); format: in vitro ADME; conditions: 1E-07 M PTX 251D; after 60 minutes
T7 construct: Eurofins Discovery Services (Eurofins Panlabs Inc) ran the assay
Protocol: as §1

panel of 165 GPCRs = test: gpcrMAX PathHunter beta-arrestin GPCR panel (agonist and antagonist); format: cell-based, human; conditions: 10 uM; 165 GPCRs tested
Protocol: as §1, with “In the gpcrMAX assay a panel of 165 GPCRs was tested through the DiscoverX PathHunter beta-arrestin enzyme fragment complementation technology, and a concentration of 10 μM PTX 251D was tested for both agonist and antagonist activity along with a reference compound for each GPCR (see S1 File for results).” left out

T7 sequence (P33261 whole entry): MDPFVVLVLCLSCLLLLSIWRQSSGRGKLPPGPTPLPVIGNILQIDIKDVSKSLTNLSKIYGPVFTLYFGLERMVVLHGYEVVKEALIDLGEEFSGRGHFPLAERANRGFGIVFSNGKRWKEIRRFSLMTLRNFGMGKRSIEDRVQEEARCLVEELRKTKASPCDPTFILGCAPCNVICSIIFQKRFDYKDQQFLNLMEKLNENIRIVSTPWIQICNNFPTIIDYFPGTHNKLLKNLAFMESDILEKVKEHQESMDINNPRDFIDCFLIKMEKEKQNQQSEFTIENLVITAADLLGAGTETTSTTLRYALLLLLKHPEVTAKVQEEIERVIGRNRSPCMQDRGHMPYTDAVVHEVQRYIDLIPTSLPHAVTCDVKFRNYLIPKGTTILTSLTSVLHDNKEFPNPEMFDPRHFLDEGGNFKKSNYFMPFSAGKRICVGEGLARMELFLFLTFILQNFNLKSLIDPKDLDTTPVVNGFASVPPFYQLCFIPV
T2 sequence (P51787 whole entry): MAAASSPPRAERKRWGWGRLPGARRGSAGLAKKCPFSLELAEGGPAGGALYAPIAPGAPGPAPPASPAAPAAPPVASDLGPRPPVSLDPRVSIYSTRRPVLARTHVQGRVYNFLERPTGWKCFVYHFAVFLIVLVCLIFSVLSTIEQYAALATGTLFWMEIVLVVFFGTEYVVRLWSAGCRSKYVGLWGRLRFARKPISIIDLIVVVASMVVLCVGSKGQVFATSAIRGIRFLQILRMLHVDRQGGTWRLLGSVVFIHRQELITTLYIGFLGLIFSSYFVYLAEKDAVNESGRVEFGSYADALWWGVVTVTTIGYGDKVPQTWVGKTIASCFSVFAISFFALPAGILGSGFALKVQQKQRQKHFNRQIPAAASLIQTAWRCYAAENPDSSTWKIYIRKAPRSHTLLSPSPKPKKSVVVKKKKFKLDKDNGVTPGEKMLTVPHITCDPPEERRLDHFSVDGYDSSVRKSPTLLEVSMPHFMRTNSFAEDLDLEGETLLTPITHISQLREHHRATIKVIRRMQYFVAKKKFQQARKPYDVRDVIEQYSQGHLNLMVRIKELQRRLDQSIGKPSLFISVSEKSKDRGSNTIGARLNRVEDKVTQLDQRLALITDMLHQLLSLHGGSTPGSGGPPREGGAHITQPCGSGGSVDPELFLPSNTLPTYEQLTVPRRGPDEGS
T6 sequence (P11712 whole entry): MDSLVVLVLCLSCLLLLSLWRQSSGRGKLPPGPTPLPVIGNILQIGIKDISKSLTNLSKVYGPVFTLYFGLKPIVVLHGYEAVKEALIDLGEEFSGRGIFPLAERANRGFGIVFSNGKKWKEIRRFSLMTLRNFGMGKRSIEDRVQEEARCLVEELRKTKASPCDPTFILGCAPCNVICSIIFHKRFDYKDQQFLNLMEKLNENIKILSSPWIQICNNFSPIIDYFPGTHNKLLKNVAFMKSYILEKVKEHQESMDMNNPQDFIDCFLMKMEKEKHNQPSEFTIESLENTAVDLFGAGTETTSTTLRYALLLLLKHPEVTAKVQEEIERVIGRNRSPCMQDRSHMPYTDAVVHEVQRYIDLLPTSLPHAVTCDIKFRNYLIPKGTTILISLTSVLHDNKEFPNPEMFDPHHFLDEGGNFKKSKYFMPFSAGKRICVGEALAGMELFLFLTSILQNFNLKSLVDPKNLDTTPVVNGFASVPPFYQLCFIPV
T5 sequence (Q14524 whole entry): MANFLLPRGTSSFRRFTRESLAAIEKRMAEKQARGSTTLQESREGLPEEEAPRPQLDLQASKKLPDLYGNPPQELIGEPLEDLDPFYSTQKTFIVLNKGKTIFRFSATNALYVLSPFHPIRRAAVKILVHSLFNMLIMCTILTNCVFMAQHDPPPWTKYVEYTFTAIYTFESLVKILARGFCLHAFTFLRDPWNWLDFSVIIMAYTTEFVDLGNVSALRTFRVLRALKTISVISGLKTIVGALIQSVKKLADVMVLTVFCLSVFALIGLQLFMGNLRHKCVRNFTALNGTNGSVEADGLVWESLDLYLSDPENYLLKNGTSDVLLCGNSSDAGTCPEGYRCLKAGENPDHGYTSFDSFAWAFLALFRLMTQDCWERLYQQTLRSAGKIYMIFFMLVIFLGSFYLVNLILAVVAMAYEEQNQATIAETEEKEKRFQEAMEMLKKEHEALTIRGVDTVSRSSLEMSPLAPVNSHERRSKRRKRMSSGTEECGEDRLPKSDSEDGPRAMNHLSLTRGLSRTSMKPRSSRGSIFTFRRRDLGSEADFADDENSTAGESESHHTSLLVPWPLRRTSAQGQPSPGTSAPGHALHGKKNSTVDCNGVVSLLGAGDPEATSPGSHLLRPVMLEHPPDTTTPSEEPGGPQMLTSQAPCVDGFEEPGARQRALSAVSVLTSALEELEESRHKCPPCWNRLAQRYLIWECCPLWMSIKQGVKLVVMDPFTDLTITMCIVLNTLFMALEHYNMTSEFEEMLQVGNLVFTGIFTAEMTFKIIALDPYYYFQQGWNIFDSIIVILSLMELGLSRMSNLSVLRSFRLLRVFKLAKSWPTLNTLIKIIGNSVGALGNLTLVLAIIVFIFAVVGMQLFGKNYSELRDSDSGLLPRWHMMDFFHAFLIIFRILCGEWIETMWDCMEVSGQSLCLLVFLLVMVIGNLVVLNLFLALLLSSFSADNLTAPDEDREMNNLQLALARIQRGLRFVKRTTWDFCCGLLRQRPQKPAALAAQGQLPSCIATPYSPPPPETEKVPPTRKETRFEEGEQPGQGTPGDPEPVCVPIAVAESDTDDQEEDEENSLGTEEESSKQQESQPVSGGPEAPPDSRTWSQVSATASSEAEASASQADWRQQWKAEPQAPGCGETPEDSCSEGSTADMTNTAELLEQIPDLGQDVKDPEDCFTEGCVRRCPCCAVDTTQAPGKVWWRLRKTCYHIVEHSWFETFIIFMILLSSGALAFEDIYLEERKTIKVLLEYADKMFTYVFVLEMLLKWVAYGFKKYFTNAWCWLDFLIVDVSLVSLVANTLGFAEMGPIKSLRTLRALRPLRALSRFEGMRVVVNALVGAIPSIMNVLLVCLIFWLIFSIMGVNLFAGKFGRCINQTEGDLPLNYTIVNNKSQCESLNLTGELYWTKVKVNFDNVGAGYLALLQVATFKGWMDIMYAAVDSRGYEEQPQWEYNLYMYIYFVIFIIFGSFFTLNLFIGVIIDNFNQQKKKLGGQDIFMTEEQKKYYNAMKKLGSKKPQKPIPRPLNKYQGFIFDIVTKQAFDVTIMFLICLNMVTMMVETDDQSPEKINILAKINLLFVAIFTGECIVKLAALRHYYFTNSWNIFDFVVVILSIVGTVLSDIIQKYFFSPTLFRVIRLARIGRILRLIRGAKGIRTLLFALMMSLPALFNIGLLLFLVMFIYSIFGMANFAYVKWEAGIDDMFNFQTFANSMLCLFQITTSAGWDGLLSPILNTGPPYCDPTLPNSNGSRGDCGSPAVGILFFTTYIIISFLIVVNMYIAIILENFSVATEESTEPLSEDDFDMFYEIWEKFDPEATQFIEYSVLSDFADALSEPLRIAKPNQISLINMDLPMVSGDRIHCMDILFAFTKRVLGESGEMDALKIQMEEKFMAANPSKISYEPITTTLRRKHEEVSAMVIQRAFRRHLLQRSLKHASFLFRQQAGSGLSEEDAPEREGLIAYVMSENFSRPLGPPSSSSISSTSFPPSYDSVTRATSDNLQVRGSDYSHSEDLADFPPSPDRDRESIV
T4 sequence (Q12809 whole entry): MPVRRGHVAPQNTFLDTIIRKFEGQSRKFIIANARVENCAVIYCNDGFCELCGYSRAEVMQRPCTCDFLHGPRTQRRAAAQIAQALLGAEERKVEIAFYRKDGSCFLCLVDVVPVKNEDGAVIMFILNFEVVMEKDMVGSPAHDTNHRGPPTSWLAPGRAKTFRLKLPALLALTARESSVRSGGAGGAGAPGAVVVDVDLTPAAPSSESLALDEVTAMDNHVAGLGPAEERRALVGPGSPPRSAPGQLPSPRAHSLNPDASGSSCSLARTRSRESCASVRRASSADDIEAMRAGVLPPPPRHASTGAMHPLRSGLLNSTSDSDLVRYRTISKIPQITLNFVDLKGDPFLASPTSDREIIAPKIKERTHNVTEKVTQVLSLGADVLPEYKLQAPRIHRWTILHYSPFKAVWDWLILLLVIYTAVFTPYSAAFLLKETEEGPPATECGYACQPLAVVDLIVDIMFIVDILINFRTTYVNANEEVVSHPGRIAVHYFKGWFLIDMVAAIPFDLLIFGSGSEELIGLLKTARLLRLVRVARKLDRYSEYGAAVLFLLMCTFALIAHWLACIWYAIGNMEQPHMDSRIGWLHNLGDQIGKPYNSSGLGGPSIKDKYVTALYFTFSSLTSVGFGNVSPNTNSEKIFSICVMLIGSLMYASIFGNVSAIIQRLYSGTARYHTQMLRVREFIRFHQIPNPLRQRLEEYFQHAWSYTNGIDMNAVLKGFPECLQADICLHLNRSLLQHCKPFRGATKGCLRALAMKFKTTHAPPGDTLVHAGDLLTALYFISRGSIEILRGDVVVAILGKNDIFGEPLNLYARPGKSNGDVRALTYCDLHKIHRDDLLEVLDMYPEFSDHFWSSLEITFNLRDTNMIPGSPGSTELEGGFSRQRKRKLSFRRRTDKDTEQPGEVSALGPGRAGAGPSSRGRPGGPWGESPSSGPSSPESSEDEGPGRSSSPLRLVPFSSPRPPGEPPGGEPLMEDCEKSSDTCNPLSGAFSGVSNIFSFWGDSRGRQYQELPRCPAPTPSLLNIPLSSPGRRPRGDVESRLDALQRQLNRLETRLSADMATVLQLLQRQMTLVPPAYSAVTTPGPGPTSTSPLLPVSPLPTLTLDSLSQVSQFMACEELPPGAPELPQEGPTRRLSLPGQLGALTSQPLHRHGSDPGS

## CCCCC(C)C=C1CN2CCCC2C(C)(O)C1 (stereo not drawn) [PTX 251D, pumiliotoxin (PTX 251D)]
[1]
  effect on voltage-gated sodium and potassium channels: inhibits both types of channels
Kv4.3/KChIP2
  inhibitory effect on Kv4.3/KChIP2: no inhibitory effect
KCNQ1/minK
  inhibitory effect on KCNQ1/minK: no inhibitory effect
Kir2.1
  inhibitory effect on Kir2.1: no inhibitory effect
hERG
  inhibitory effect on hERG: no inhibitory effect
[2]
  inhibitory effect on NaV1.5: no inhibitory effect
Human recombinant CYP2C9
  clearance of PTX 251D by CYP2C9: minimal clearance
[3]
  clearance of PTX 251D by CYP2C19: minimal clearance
Panel of 165 GPCRs
  inhibition or activation of GPCRs: no significant inhibition or activation

From publication PMC8916643, “Molecular physiology of pumiliotoxin sequestration in a poison frog” (PLoS ONE, 2022)
